The text below walks through data of patent publication US12060310B2, “Compositions and methods of using itaconic acid derivatives” (ERGON PHARMACEUTICALS, LLC, priority 2018, dated 2024).

“Also recorded” adds a separate entry of the source.

In experiment [1] the test system is C6-IRG1-9 rat glioma cells. Description: C6-IRG1-9 rat glioma cell proliferation (CyQuant). Particulars: various concentrations, 48 hrs; FIG. 3. Type of experiment: cell-based. On the procedure: Tumor Cell Proliferation Assay. This assay was used to assess the anti-tumor properties of a therapeutic agent in vitro. In a typical proliferation assay, cells were cultured to near confluency in the appropriate media. Subsequently, the cells were trypsinized and plated onto 96-well plates at 2,000 or 5,000 cell per well. The cells were cultured for 48 to 96 hours in the presence or absence of the therapeutic agent. Cell proliferation was then determined using spectrophotometry (MTT assay, BrdU assay) or fluorimetry (Cyquant assay).
Inhibition of C6-IRG1-9 Rat Glioma cell proliferation. C6-IRG1-9 cells are rat C6 glioma cells that have been transfected to overexpress IRG1. Overexpression of IRG1 is maintained by culturing the cells in DMEM media containing 0.55 μg/mL puromycin. For the proliferation assays, the cells were plated onto a 96-well plate at a density of 2,000 cells/well. The cells were allowed to adhere overnight; they were subsequently treated with various concentrations of compounds of Formula (2) for 48 hrs. At the end of the incubation period, the number of cells is assessed using the CyQuant Cell Proliferation kit (Thermo Fisher) according to the manufacturer's instructions. The results, shown in FIG. 3, indicate that compounds of Formula (2) are able to reduce or abrogate growth of C6-IRG1-9 cells. In FIG. 3, cell proliferation is expressed as % Untreated Control, defined as: (t−s)*100/(c−s), where t is the number of cells present in a treated well at the end of the incubation period, c is the number of cells present in an untreated well at the end of the incubation period, and s is the initial number of cells in the wells prior to initiation of treatment.

Experiment [2] concerns TNFα secretion from LPS-stimulated human monocyte derived macrophages (hMDMs). Description: Inhibition of TNFα secretion (in vitro inflammation assay), ELISA. It is filed as cell-based. To be noted: 1 μg/mL LPS, 6 h, concentrations ≥500 μM, FIG. 2. As for the experimental part: In Vitro Inflammation Assay. In vitro inflammation was assessed by measuring the concentration of TNFα in the conditioned media of macrophages stimulated with 0.1-1 μg/mL LPS in the presence or absence of the compound of interest after 4-6 hrs.
Inhibition of TNFα secretion. hMDMs were pretreated with various concentrations of Compound (6) for 15 min and then stimulated with 1 μg/mL LPS. Conditioned media were collected 6 h later and TNFα concentrations were determined by ELISA.
On the technique in general: In an ELISA, binding on a coated surface is turned into a signal by an enzyme label.

The subject of experiment [3] is TCR-activated hCD8+ T cells. Description: CD8+ T cell proliferation (CFSE dilution, flow cytometry). Type of experiment: cell-based, human. Particulars: 10 nM; versus untreated TCR-activated control cells; FIG. 4. As for the experimental part:
Augmentation of CD8^+ T Cell Proliferation. Naïve hCD8^+ T cells were isolated from commercially available buffy coats using magnetic separation and the appropriate kit from Miltenyi Biotec. Cells were then subject to TCR activation using a cocktail of anti-CD2/anti-CD3/anti-CD28 antibodies. Untreated control and treated cells were included in the experiment. The cells were cultured for 72 hrs in TexMACS media (Miltenyi Biotec) without IL-2 and for an additional 48 hrs in TexMACS media containing 20 U human IL-2/mL. Cell division was assessed by flow cytometry using the carboxyfluorescein succimidyl ester (CFSE) dilution method.
(In general: A flow cytometer gives signals particle by particle.)

For a further experiment, the target named is T1, IRG1 (Homo sapiens, UniProt A6NK06).
T1 construct: Human monocytes, isolated from peripheral blood and differentiated into macrophages; endogenous in cells; host or cells: human monocyte-derived macrophages (hMDMs), M-CSF differentiated, LPS stimulated
T1 sequence (A6NK06 1-481): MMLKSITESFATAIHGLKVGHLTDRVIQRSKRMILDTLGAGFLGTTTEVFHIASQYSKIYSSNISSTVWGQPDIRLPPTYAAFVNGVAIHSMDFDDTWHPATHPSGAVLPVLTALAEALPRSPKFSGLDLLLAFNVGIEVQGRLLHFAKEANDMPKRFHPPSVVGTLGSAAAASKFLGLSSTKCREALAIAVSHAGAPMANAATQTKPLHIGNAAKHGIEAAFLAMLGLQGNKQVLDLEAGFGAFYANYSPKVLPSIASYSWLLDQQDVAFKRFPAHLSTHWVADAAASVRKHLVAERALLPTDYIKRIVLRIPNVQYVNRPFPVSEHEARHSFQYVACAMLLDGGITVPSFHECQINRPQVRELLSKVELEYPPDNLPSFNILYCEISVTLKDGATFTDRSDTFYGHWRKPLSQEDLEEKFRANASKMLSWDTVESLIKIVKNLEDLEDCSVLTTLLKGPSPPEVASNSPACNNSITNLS
Description: Itaconic acid synthesis by LPS-stimulated macrophages (inhibition of IRG1), GC-MS. Type of experiment: cell-based. To be noted: LPS-stimulated hMDMs; pretreated 50, 100, 500 μM for 15 min, LPS 8 hrs; FIG. 1. As for the experimental part:
Inhibition of IRG1. Itaconic acid levels are a measure of IRG1 expression/activity. To determine the activity of IRG, hMDMs were stimulated with 100 ng/ml LPS for 8 hrs in the presence or absence of the therapeutic agent. Gas chromatography-mass spectroscopy (GC-MS) was used to estimate the intracellular and extracellular concentration of the itaconic acid. In a typical assay, 1-5×10^6 cells were plated onto a 6-well plate and allowed to adhere overnight. The cells were then stimulated with 0.1-1 μg/mL LPS in the presence or absence of the compound of interest for 8 hrs. The cells were then washed and metabolites were extracted using methanol/water and acetonitrile additions. The aqueous phase of the mixture was dried and metabolites present were derivatized prior to the detection by GC-MS.
Itaconic Acid Synthesis by LPS-Stimulated Macrophages after Treatment with Compound (6). Human monocytes, isolated from peripheral blood and differentiated into macrophages in the presence of 100 ng/ml monocyte colony-stimulating factor (M-CSF) for 5 days, were plated onto a 6-well plate at a density of 1×10^6 cells/well. The cells were allowed to adhere overnight. […] Derivatized metabolites were analyzed by GC-MS. The amount of itaconic acid present in the samples was determined after peak integration. […]

The test system of experiment [4] is trimethylated lysine site 4 of histone 3 (H3K4me3). The experiment can be described thus: Epigenetic modification, Western immunoblotting of H3K4me3. It is filed as cell-based, human. To be noted: 10 μM, 72 hrs, TCR-activated hCD8+ T cells; FIG. 5. On the procedure: Epigenetic Modifications. The ability of a therapeutic agent to alter acetylation and/or methylation of histones was assessed by Western Immunoblotting. Briefly, immune and other type cells were collected after being exposed to the therapeutic agent or vehicle control for a specific period of time, typically 24-72 hrs. They were then lysed and cell lysates from control and treated cells contained equal amounts of proteins were subjected to SDS-PAGE electrophoresis. The presence of acetylated and methylated histone sites was determined by Western Immunoblotting using appropriate antibodies.
Epigenetic Modification. TCR-activated hCD8^+ T cells were exposed to 0 or 10 µM Compound (6) for 72 hrs prior to lysing. Equal amounts of cell lysates were subjected to gel electrophoresis and Western immunoblotting against trimethylated lysine site 4 of histone 3 (H3K4me3). The experiment also included cell lysates from naïve cells. Image J was used for protein quantification. Western immunoblotting against histone 3 (H3) was also performed for normalization purposes. […] Exposure of the hCD8^+ T cells to 10 μM Compound (6) led to the depletion of trimethylated H3K4. H3K4me3 is commonly associated with activation of transcription.
In general terms: Immunoblotting shows a protein as a band on a membrane.

The test system of experiment [5] is TCR-activated hCD8+ T cells. The experiment can be described thus: hCD8+ T cell differentiation into effector T cells (IFNγ and GZMB release, ELISA). It is filed as cell-based, human. As for the experimental part: Differentiation of T Cells. The ability of T cells to differentiate from a naïve to an effector state was assessed by measuring the levels of IFNγ or GZMB synthesis following activation of the cells using a cocktail of anti-CD2/anti-CD3/anti-CD28 antibodies. Expression of IFNγ, GZMB, and other effector cytokines was measured by determining their concentration in the conditioned media 24-72 hrs after initiation of activation or by estimating the % cells expressing these cytokines using fluorescence-activated cell sorting (FACS).
Augmentation of hCD8^+ T Cell Differentiation into Effector T Cells. Naïve CD8+ T cells were isolated from human buffy coats using magnetic separation and the appropriate kit from Miltenyi Biotec. Cells were then activated using a cocktail of anti-CD2/anti-CD3/anti-CD28 antibodies. Differentiation of the cells into effector T cells was assessed by determining the levels of IFNγ and GZMB released into the media at 24 and 72 hrs, respectively using appropriate ELISA kits. Cytokine concentrations were normalized per number of cells present and expressed as % Untreated Control.

Experiment [6] concerns CT26 mouse colorectal tumors. Description: Survival of CT26 tumor-bearing mice (in vivo anti-tumor effect). On the procedure:
In Vivo Anti-Tumor Effect. The anticancer properties of the therapeutic agent were evaluated in vivo by determining the ability of the agent to suppress tumor growth and/or increase survival of tumor-bearing animals. In a typical experiment, 0.1-1×10^6 tumor cells, suspended in PBS containing 20% Matrigel, were injected subcutaneously in the right flank of each mouse. When the tumors became palpable, the animals were randomized into different groups and treatment began. In vivo tests routinely included a vehicle control group and different doses and/or routes of administration of the therapeutic agent. Tumor growth was assessed using calipers and the following formula: Tumor Volume=length×width×width×½
The Kaplan-Meier analysis was used to estimate the survival probability of the tumor-bearing animals.
C57BL/6 mice were injected subcutaneously in the right flank with 1×10^5 CT26 mouse colorectal tumor cells, suspended in PBS containing 20% Matrigel. The tumors were allowed to grow to ˜100 mm^3. The mice were randomized into two groups (n=6 animals/group): one group received vehicle control and the other group was treated with i.p. injections of 0.2 mg/kg Compound (6) twice a week (Tuesday-Thursday). The experiment continued for 27 days, at which point the mortality rate of control animals was 80%. […] The experiment was repeated (FIG. 6B). In FIG. 6B, treated animals received oral administrations of 3 mg/kg Compound (6) twice a day.

The subject of the next experiment is M-MDSCs in CT26 tumors. Description: Tumor immunophenotyping of CT26 tumors (MDSCs). It is filed as in vivo, mouse. Particulars: 0.2 mg/kg ip, twice a day; tumors 250-1500 mm^3; FIG. 7. As for the experimental part: Tumor Immunophenotyping. To determine the effect of a therapeutic agent on a specific immune cell type in vivo, syngeneic tumor models were employed. In a typical experiment, tumors were allowed to grow to a certain size and were then treated for a specific number of days prior to termination. At the end of the experiment, animals were euthanized, tumors were excised and single cell suspensions were immediately obtained through dissociation of tumor tissues with collagenase. Tumor cell suspensions were then subject to FACS analysis in order to determine the presence of various biomarkers.
Tumor Immunophenotyping of CT26 Tumors. CT26-tumor bearing mice treated with either vehicle control or 0.2 mg/kg Compound (6) (ip, twice a day) were euthanized when the tumors had reached a size of 250-1500 mm^3. Tumors were excised and single cell suspensions were obtained using the tumor dissociation kit from Miltenyi Biotec per manufacturer's instructions. The suspensions were analyzed for the presence of MDSCs.

The mark [7] stands for this setting: 3 mg/kg oral twice a day, end of experiment.

Regarding `CC(C)=C(CC(=O)O)C(=O)O` [(3), 2-(propan-2-ylidene)butanedioic acid], the “cell proliferation of C6-IRG1-9 cells” value in experiment [1] was “inhibition of proliferation”.
The same measure, in the same setting: in the case of `O=C(O)CC(=Cc1ccccc1)C(=O)O` [(4), 2-(phenylmethylidene)butanedioic acid] it was “inhibition of proliferation”; in that of `C=CCC(C(=O)O)/C(=C/c1ccc(F)cc1)C(=O)O` (stereo not drawn) [(7), 2-[(4-flurophenyl)methylidene]-3-(prop-2-ene-1-yl)butanedioic acid], “inhibition of proliferation”; in that of `O=C(O)CC(=Cc1ccc(F)cc1)C(=O)O` [Compound (5), 2-[(4-fluorophenyl)methylidene]butanedioic acid], “inhibition of proliferation”.
As for `O=C(O)/C(=C\c1ccc(F)cc1)C(Cc1ccccc1)C(=O)O` (stereo not drawn) [Compound (6), 2-benzyl-3-[(4-flurophenyl)methylidene]butanedioic acid], the “secretion of TNFα” value in experiment [2] is “inhibits in vitro inflammation; also recorded: reduced secretion”. Besides, the “proliferation of hCD8+ T cells” value in experiment [3] is reported as “increased proliferation”. Besides, the “cell proliferation of C6-IRG1-9 cells” value in experiment [1] is “inhibition of proliferation”. Moreover, on IRG1, the “extracellular levels of itaconic acid” value was “suppressed” and the “intracellular levels of itaconic acid” value is reported as “suppressed”. The “trimethylated H3K4 (H3K4me3/H3 ratio)” value in experiment [4] is recorded as “depletion”. The IFNγ synthesis entry in experiment [5] (high (>100 μM) concentrations) is listed as “decrease”. In experiment [5] (low concentrations), the “production of GZMB” value was “increase production”. For the same compound, the “synthesis of INFγ following TCR activation” value in experiment [5] (low concentrations, range of 0.1 nM to 100 µM) was “increased synthesis”. Further, the “survival (Kaplan-Meier) of CT26 tumor-bearing mice” value in experiment [6] (0.2 mg/kg i.p. twice a week, 27 days, versus vehicle control, FIG. 6A) was “survival advantage”. Further, in experiment [6] (setting [7]), the “animals with complete tumor regression” value is listed as “⅙” and the “mice exhibiting slower tumor growth” value is recorded as “⅚”. Also, in experiment [6] (3 mg/kg orally twice a day, FIG. 6B), the “survival of CT26 tumor-bearing mice” value was “increased survival”. In addition, the “intratumoral frequency of M-MDSCs” value in the experiment with M-MDSCs in CT26 tumors was “significantly reduces”.
